Data reported in patent US20220326218A1, “COMPOSITION AND METHOD FOR INHIBITING BORC COMPLEX TO TREAT CANCERS WITH NF1 DEFICIENCY AND DYSREGULATED RAS SIGNALING” (THE TRUSTEES OF DARTMOUTH COLLEGE, priority 2019, published 2022).

Key:
Assay type in all cases: cell-based, human
γ-H2AX = assay: Immunofluorescence staining for DNA damage marker γ-H2AX; settings: U87-MG, 2 μM, 24 h
Procedure: (§1) U87-MG cells were plated at a concentration of 50,000 cells/well onto precoated poly-D-lysine (PDL) coverslips (Neuvitro) in 24-well plates (Falcon) and allowed to adhere overnight. Medium was removed and replaced with treatment-laced media normalized to DMSO, and cells were treated for the indicated timepoints. At the time of collection, cells were washed with PBS and fixed with 4% paraformaldehyde without methanol (EMS) or 100% methanol (Fischer). Coverslips were washed with Tween20-containing PBS (PBST; Fischer). Following permeabilization with 0.5% Triton X-100 in PBS (Fischer), coverslips were blocked for 1 h at room temperature in IF Buffer (0.05% azide, 0.2% Triton X-100, 2% Normal Goat Serum or, for 8-OHG, Normal Donkey Serum). The following primary antibodies were used for 1 hour at room temperature unless specified: AlexaFluor 488 pre-conjugated anti-γ-H2AX (N1-431) mouse monoclonal (30 minutes; BD Biosciences), anti-cleaved caspase 3 (Asp175) rabbit polyclonal (Cell Signaling), anti-SQSTM1/p62 (D-3) mouse monoclonal (Santa Cruz), anti-8-Hydroxyguanosine goat polyclonal (1:200; Millipore), anti-LAMP1 (D4O1S) mouse monoclonal (O/N at 4° C.; Cell Signaling), anti-BNIP3L/Nix (D4R4B) rabbit monoclonal (O/N at 4° C.; Cell Signaling), anti-FLAG (M2) mouse monoclonal (2 hours at 37° C.; Sigma-Aldrich). […]

cleaved caspase-3 = assay: Immunofluorescence staining for cleaved caspase-3; settings: U87-MG, 2 μM, 48 h
Procedure: as §1

PARP = assay: Western immunoblotting for PARP; settings: U87-MG
Procedure: (§2) U87-MG cells were plated at 500,000 cells/well in 6-well plates and allowed to adhere overnight (Falcon). Medium was removed and replaced with fresh medium containing drugs or compounds for the indicated timepoints. Cells were collected after treatment by washing with PBS, harvested with trypsin plus agitation to detach cells, pelleted in a centrifuge and resuspended in PBS to wash. Cells were transferred to 1.5 mL microcentrifuge tubes, pelleted, and resuspended in RIPA lysis buffer (50 mM Tris pH 8.0, 150 mM NaCl, 1% nonidet P40, 0.5% sodium deoxycholate, and 0.05% SDS) containing 1 mM NaVO4, 1 mM NaF, 1 mM phenylmethylsulfonyl fluoride, 0.1 μg/mL antipain, 1 μM aprotinin, 100 μM benzamidine HCl, 0.1 μg/mL leupeptin, 0.1 μg/mL pepstatin, and 0.1 μg/mL soybean trypsin inhibitor. Protein was quantified using a BCA assay kit (Pierce). 50 μg of protein was prepared in 1× Laemmli sample buffer (50 mM Tris pH 6.8, 0.02% w/v bromophenol blue, 2% w/v SDS, 10% v/v glycerol, 1% v/v beta-mercaptoethanol, 12.5 mM EDTA) and separated by SDS-PAGE on a 4-15% polyacrylamide gradient gel (Bio-Rad). […]

p62 = assay: Western immunoblotting of autophagy marker p62; settings: U87-MG, 12 h treatment +/- 12 h HCQ
Procedure: as §2

BNIP3L/Nix [1] = assay: Western immunoblotting of BNIP3L/Nix; settings: U87-MG, 2 μM, 24 h, 20 μM QVD pre-treatment
Procedure: as §2

BNIP3L/Nix [2] = assay: qPCR of BNIP3L/Nix transcript; settings: U87-MG
U87-MG cells [3] = assay: Flow cytometry cell cycle distribution (DNA content); settings: 2 μM, 24 h
Procedure: U87-MG cells were plated at 500,000 cells/well in a 6-well plate and allowed to adhere overnight. The medium was replaced with cell culture media containing DMSO, 2 μM Y102, 100 nM Doxorubicin, or 100 μM CoCl2 for 24 hours. At the end of the incubation, cells were rinsed twice with PBS, trypsinized, and rinsed again with PBS prior to fixation with BD cytofix/cytoperm for 30 minutes on ice. After washing with BD perm/wash twice, cells were stained with DAPI at a final concentration 0.33 μg/mL in PBS for 30 minutes on ice. Cells were washed twice more with BD perm/wash, and resuspended in PBS for analysis. The cells were transferred to flow cytometry tubes (14-961-10, Fisherbrand) and analyzed using a MacsQuant VYB 8-color flow cytometer. DNA content was detected using the V1 channel. This experiment was repeated twice, and the percentage of cells in each cell cycle stage is shown. 50,000 events per sample were collected and cellular debris was gated out of the dataset.

U87-MG cells [4] = assay: β-Galactosidase senescence assay; settings: 2 μM, 72 h
Procedure: U87-MG cells were plated at 100,000 cells/well and allowed to adhere overnight. Medium was removed and replaced with medium containing DMSO, 2 μM Y102, or 100 nM Doxorubicin for a total of 72 hours. Cells were collected and stained for β-galactosidase using the Senescence β-Galactosidase Staining Kit (Cell Signaling). 100 cells were counted per condition; graph represents results from triplicate experiments.

With `Cn1cnnc1S/C=C/C(=O)c1ccc(F)cc1` [Y102] the “change in γ-H2AX expression” value (γ-H2AX) was “no significant change”, the “amount of cleaved caspase-3 versus vehicle control” value (cleaved caspase-3) was “No difference” and the “PARP western immunoblotting as check of absent caspase-3-mediated apoptosis” value (PARP) was “confirmed”. The “p62 expression (western immunoblotting)” value (p62) was “increased”, the “BNIP3L/Nix protein levels versus DMSO” value (BNIP3L/Nix [1]) was “little difference” and the “BNIP3L/Nix RNA levels versus DMSO” value (BNIP3L/Nix [2]) was “little difference”. The “cell cycle arrest (cell cycle distribution by DNA content)” value (U87-MG cells [3]) was “no indication” and the “senescence (senescence-associated β-galactosidase)” value (U87-MG cells [4]) was “no indication”.
